Common to all, as to experiment: relative viability (nuclei count vs DMSO), 5 days (fraction); higher = more cells survive
Compound in assay [1]: C(C(=O)C(=O)O)Br [Bromopyruvate] + C[C@]1(O)C[C@@H](c2nc(-c3ccc4ccc(-c5ccccc5)nc4c3)c3c(N)nccn32)C1 [Linsitinib] (partner 1 µM)
In a few lines: (§1)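 The day after seeding in 1536-well plates, lung cancer cell lines were treated by pin tool with a single drug, or with a fixed anchor-drug dose together with five library-drug doses (not always all listed) in √10 steps. After 5 days, a combined fix-and-stain solution (final 0.05% Triton X-100, 1% formaldehyde, 1 ug/ml Hoechst) was added. Nuclei counted on 4× images gave relative viability as treated counts over vehicle counts, reported as the median of duplicate plates.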

Compound in assay [2]: C(C(=O)C(=O)O)Br [Bromopyruvate] + Cc1nc(Nc2ncc(C(=O)Nc3c(C)cccc3Cl)s2)cc(N2CCN(CCO)CC2)n1 [Dasatinib] (partner 0.075 µM)
In a few lines:
as §1

Compound in assay [3]: C(C(=O)C(=O)O)Br [Bromopyruvate] + Nc1nc2[nH]cc(CCc3ccc(C(=O)N[C@@H](CCC(=O)O)C(=O)O)cc3)c2c(=O)[nH]1 [Pemetrexed] (partner 0.2 µM)
In a few lines: as §1

Compound in assay [4]: CC(O)(CS(=O)(=O)c1ccc(F)cc1)C(=O)Nc1ccc(C#N)c(C(F)(F)F)c1 [Bicalutamide] + CS(=O)(=O)CCNCc1ccc(-c2ccc3ncnc(Nc4ccc(OCc5cccc(F)c5)c(Cl)c4)c3c2)o1 [Lapatinib] (partner 2 µM)
An outline of the steps:
as §1

Take NCI-H1395: the relative viability came out at 1.36 in assay [1] (first compound 1 µM); 1.29 in assay [1] (first compound 3.162 µM); 1.09 in assay [1] (first compound 10 µM); 1.2 in assay [1] (first compound 31.62 µM); 1.17 in assay [1] (first compound 100 µM); 0.412 in assay [2] (first compound 1 µM). Besides, the relative viability in assay [2] (first compound 3.162 µM) is 0.386; in assay [2] (first compound 10 µM), 0.457; in assay [2] (first compound 31.62 µM), 0.423; in assay [2] (first compound 100 µM) it was 0.396; in assay [3] (first compound 1 µM) it was 0.978; in assay [3] (first compound 3.162 µM), 0.917. The relative viability was 0.884 in assay [3] (first compound 10 µM); 0.847 in assay [3] (first compound 31.62 µM); 0.928 in assay [3] (first compound 100 µM); 0.858 in assay [4] (first compound 0.08 µM); 0.956 in assay [4] (first compound 0.253 µM); 1.29 in assay [4] (first compound 0.8 µM). The relative viability in assay [4] (first compound 2.53 µM) stood at 0.869.
NCI-H358: the relative viability in assay [1] (first compound 1 µM) is 0.748; in assay [1] (first compound 3.162 µM), 0.77; in assay [1] (first compound 10 µM) it was 0.81; in assay [1] (first compound 31.62 µM) it was 0.62; in assay [1] (first compound 100 µM), 0.903; in assay [2] (first compound 1 µM) it was 0.197. In addition, the relative viability in assay [2] (first compound 3.162 µM) came out at 0.149; in assay [2] (first compound 10 µM) it was 0.143; in assay [2] (first compound 31.62 µM), 0.171; in assay [2] (first compound 100 µM), 0.167; in assay [3] (first compound 1 µM), 0.147; in assay [3] (first compound 3.162 µM) it was 0.145. For the same cell line, the relative viability in assay [3] (first compound 10 µM) amounted to 0.164; in assay [3] (first compound 31.62 µM) it was 0.17; in assay [3] (first compound 100 µM) it was 0.183; in assay [4] (first compound 0.08 µM) it was 0.471; in assay [4] (first compound 0.253 µM) it was 0.475; in assay [4] (first compound 0.8 µM), 0.524. The relative viability in assay [4] (first compound 2.53 µM) was found to be 0.51.
PC-14: the relative viability in assay [1] (first compound 1 µM) came out at 1.03; in assay [1] (first compound 3.162 µM) it was 1.01; in assay [1] (first compound 10 µM), 0.938; in assay [1] (first compound 31.62 µM), 0.944; in assay [1] (first compound 100 µM), 1.04; in assay [2] (first compound 1 µM) it was 0.307. Besides, the relative viability in assay [2] (first compound 3.162 µM) was determined as 0.328; in assay [2] (first compound 10 µM), 0.284; in assay [2] (first compound 31.62 µM) it was 0.272; in assay [2] (first compound 100 µM), 0.191; in assay [3] (first compound 1 µM) it was 0.141; in assay [3] (first compound 3.162 µM), 0.143. Besides, the relative viability in assay [3] (first compound 10 µM) came out at 0.14; in assay [3] (first compound 31.62 µM), 0.154; in assay [3] (first compound 100 µM) it was 0.123; in assay [4] (first compound 0.08 µM) it was 0.301; in assay [4] (first compound 0.253 µM) it was 0.295; in assay [4] (first compound 0.8 µM), 0.452. Also, in assay [4] (first compound 2.53 µM), the relative viability is 0.297.
In the case of CAL-12T, the relative viability in assay [1] (first compound 1 µM) was 0.789; in assay [1] (first compound 3.162 µM) it was 0.732; in assay [1] (first compound 10 µM), 0.899; in assay [1] (first compound 31.62 µM), 0.828; in assay [1] (first compound 100 µM), 0.845; in assay [2] (first compound 1 µM), 0.488. The relative viability stood at 0.341 in assay [2] (first compound 3.162 µM); 0.409 in assay [2] (first compound 10 µM); 0.539 in assay [2] (first compound 31.62 µM); 0.392 in assay [2] (first compound 100 µM); 1.26 in assay [3] (first compound 1 µM); 1.05 in assay [3] (first compound 3.162 µM). Further, the relative viability was found to be 1.25 in assay [3] (first compound 10 µM); 1.1 in assay [3] (first compound 31.62 µM); 1.05 in assay [3] (first compound 100 µM); 0.809 in assay [4] (first compound 0.08 µM); 0.661 in assay [4] (first compound 0.253 µM); 0.891 in assay [4] (first compound 0.8 µM). The relative viability in assay [4] (first compound 2.53 µM) came to 0.581.
